In patent US10780090B2, “Heteroaryl compounds useful as inhibitors of SUMO activating enzyme” (Millennium Pharmaceuticals, Inc., priority 2014, dated 2020):

Molecular target: recombinant human SAE enzyme (Homo sapiens (Human), UniProt Q9UBT2)
Experiment: SAE HTRF enzyme assay
Type: biochemical
Conditions: for inhibition at 0.111 µM: read-out: Percent Inhibition
Summary of the method: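 Enzyme reaction: 50 mM HEPES pH 7.5, 5 mM MgCl2, 250 μM GSH, 0.05% BSA, 0.5 μM ATP, 0.01 μM Ubc9-GST, 0.125 μM Sumo-Flag, 0.11 nM SAE; 105 min, 24° C. Stop/detect, 2 h, then HTRF. % inh or IC50.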

[1] = SAE inhibition at compound concentration 0.111 μM
[2] = SAE inhibition, class symbols, legend in nM

Sequence of recombinant human SAE enzyme (Q9UBT2 whole entry): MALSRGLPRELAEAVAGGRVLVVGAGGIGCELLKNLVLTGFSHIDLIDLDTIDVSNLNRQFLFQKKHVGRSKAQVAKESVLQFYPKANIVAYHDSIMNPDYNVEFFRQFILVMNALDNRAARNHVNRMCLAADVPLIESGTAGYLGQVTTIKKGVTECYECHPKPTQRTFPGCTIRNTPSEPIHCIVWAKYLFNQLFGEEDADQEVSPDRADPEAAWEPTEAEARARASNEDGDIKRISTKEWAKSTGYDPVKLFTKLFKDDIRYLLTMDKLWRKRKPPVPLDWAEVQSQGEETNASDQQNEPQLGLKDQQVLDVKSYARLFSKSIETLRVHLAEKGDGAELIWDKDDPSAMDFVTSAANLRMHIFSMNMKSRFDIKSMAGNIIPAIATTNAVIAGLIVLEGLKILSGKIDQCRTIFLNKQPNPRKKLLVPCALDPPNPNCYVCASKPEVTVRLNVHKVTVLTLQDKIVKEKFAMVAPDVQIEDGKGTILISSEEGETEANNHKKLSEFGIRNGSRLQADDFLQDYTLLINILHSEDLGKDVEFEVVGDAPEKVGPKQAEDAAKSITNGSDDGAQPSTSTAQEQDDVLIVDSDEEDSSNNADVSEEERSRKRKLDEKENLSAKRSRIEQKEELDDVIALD
Sequence of recombinant human SAE enzyme (Q9UBE0 whole entry partner): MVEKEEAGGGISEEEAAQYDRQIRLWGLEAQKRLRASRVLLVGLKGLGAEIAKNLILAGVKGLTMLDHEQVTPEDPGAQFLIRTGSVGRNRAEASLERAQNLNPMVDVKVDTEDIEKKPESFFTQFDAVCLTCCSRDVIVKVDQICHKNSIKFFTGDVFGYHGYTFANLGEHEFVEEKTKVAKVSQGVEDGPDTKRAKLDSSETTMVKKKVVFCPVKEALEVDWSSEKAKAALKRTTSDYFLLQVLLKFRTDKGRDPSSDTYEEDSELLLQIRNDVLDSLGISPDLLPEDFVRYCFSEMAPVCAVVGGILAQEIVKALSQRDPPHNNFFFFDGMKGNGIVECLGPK

| Molecule | inhibition at 0.111 µM (Concentration 0.111 μM) [%] | IC50 (class symbols A/B/C) [nM] | Percent Inhibition [1] [%] | IC50 [2] [nM] | Percent Inhibition (Concentration 0.111 μM) |
| --- | --- | --- | --- | --- | --- |
| NS(=O)(=O)OC[C@H]1C[C@@H](Nc2ncncc2C(=O)c2cc(COc3ccccc3Br)cs2)C[C@@H]1O [I-98, [(1R,2S,4R)-4-{[5-({4-[(2-bromophenoxy)methyl]-2-thienyl}carbonyl)pyrimidin-4-yl]amino}-2-hydroxycyclopentyl]methyl sulfamate] | 97 | < 10 | – | – | – |
| NS(=O)(=O)OC[C@H]1C[C@@H](Nc2ncncc2C(=O)c2cc([C@@H]3OCc4ccc(Cl)cc43)c(Cl)s2)C[C@@H]1O (single isomer, unassigned) [I-310b, [(1R,2S,4R)-4-{[5-({5-chloro-4-[(1R)-6-chloro-1,3-dihydro-2-benzofuran-1-yl]-2-thienyl}carbonyl)pyrimidin-4-yl]amino}-2-hydroxycyclopentyl]methyl sulfamate or [(1R,2S,4R)-4-{[5-({5-chloro-4-[(1S)-6-chloro-1,3-dihydro-2-benzofuran-1-yl]-2-thienyl}carbonyl)pyrimidin-4-yl]amino}-2-hydroxycyclopentyl]methyl sulfamate] | – | – | 98 | < 10 | – |
| NS(=O)(=O)OC[C@H]1C[C@@H](Nc2ncncc2C(=O)c2cc(Cn3cnc(Br)c3)cs2)C[C@@H]1O [I-243, [(1R,2S,4R)-4-{[5-({4-[(4-bromo-1H-imidazol-1-yl)methyl]-2-thienyl}carbonyl)pyrimidin-4-yl]amino}-2-hydroxycyclopentyl]methyl sulfamate] | 19 | 100 to 1000 | – | – | – |
| NS(=O)(=O)OC[C@H]1C[C@@H](Nc2ncncc2C(=O)c2cc(S(=O)(=O)c3cccc(Cl)c3)c(Cl)s2)C[C@@H]1O [I-203, [(1R,2S,4R)-4-{[5-({5-chloro-4-[(3-chlorophenyl)sulfonyl]-2-thienyl}carbonyl)pyrimidin-4-yl]amino}-2-hydroxycyclopentyl]methyl sulfamate] | 58 | 10 to 100 | – | – | – |
| Cc1sc(C(=O)c2cncnc2N[C@@H]2C[C@H](COS(N)(=O)=O)[C@@H](O)C2)cc1[C@H]1OCCc2ccc(N3CCCC3)nc21 (mixture of isomers) [I-348, [(1R,2S,4R)-2-hydroxy-4-{[5-({5-methyl-4-[(8R)-2-(pyrrolidin-1-yl)-5,8-dihydro-6H-pyrano[3,4-b]pyridin-8-yl]-2-thienyl}carbonyl)pyrimidin-4-yl]amino}cyclopentyl]methyl sulfamate and [(1R,2S,4R)-2-hydroxy-4-{[5-({5-methyl-4-[(8S)-2-(pyrrolidin-1-yl)-5,8-dihydro-6H-pyrano[3,4-b]pyridin-8-yl]-2-thienyl}carbonyl)pyrimidin-4-yl]amino}cyclopentyl]methyl sulfamate] | – | – | 97 | < 10 | – |
| COc1ccc2c(n1)[C@H](c1cc(C(=O)c3cncnc3N[C@@H]3C[C@H](COS(N)(=O)=O)[C@@H](O)C3)sc1C)OCC2 (single isomer, unassigned) [I-339b, [(1R,2S,4R)-2-hydroxy-4-{[5-({4-[(8S)-2-methoxy-5,8-dihydro-6H-pyrano[3,4-b]pyridin-8-yl]-5-methyl-2-thienyl}carbonyl)pyrimidin-4-yl]amino}cyclopentyl]methyl sulfamate or [(1R,2S,4R)-2-hydroxy-4-{[5-({4-[(8R)-2-methoxy-5,8-dihydro-6H-pyrano[3,4-b]pyridin-8-yl]-5-methyl-2-thienyl}carbonyl)pyrimidin-4-yl]amino}cyclopentyl]methyl sulfamate] | – | – | 94 | < 10 | – |
| [(1R,2S,4R)-4-{[5-({5-chloro-4-[(1S)-1,2,3,4-tetrahydroisoquinolin-1-yl]-2-thienyl}carbonyl)pyrimidin-4-yl]amino}-2-hydroxycyclopentyl]methyl sulfamate and [(1R,2S,4R)-4-{[5-({5-chloro-4-[(1R)-1,2,3,4-tetrahydroisoquinolin-1-yl]-2-thienyl}carbonyl)pyrimidin-4-yl]amino}-2-hydroxycyclopentyl]methyl sulfamate [I-279] | – | < 10 | – | – | 99 |
| NS(=O)(=O)OC[C@H]1C[C@@H](Nc2ncncc2C(=O)c2cc([C@@H]3OCCc4ccc(F)cc43)c(Cl)s2)C[C@@H]1O (single isomer, unassigned) [I-294, [(1R,2S,4R)-4-[[5-[5-chloro-4-[(1R)-7-fluoroisochroman-1-yl]thiophene-2-carbonyl]pyrimidin-4-yl]amino]-2-hydroxy-cyclopentyl]methyl sulfamate or [(1R,2S,4R)-4-[[5-[5-chloro-4-[(1S)-7-fluoroisochroman-1-yl]thiophene-2-carbonyl]pyrimidin-4-yl]amino]-2-hydroxy-cyclopentyl]methyl sulfamate] | – | – | 99 | < 10 | – |
| NS(=O)(=O)OC[C@H]1C[C@@H](Nc2ncncc2C(=O)c2cc(Cn3ccc4ccc(Cl)cc43)cs2)C[C@@H]1O [I-125, [(1R,2S,4R)-4-{[5-({4-[(6-chloro-1H-indol-1-yl)methyl]-2-thienyl}carbonyl)pyrimidin-4-yl]amino}-2-hydroxycyclopentyl]methyl sulfamate] | 97 | < 10 | – | – | – |
| N[C@@H](c1cccc(Cl)c1)c1cc(C(=O)c2cncnc2N[C@@H]2C[C@H](COS(N)(=O)=O)[C@@H](O)[C@H]2O)sc1Cl (single isomer, unassigned) [I-14a, [(1R,2R,3S,4R)-4-{[5-({4-[(S)-Amino(3-chlorophenyl)methyl]-5-chloro-2-thienyl)carbonyl)pyrimidin-4-yl]amino}-2,3-dihydroxycyclopentyl]methyl sulfamate or [(1R,2R,3S,4R)-4-{[5-({4-[(R)-Amino(3-chlorophenyl)methyl]-5-chloro-2-thienyl}carbonyl)pyrimidin-4-yl]amino}-2,3-dihydroxycyclopentyl]methyl sulfamate] | – | < 10 | – | – | 101 |
| C[C@](N)(c1cccc(Cl)c1)c1csc(C(=O)c2cncnc2N[C@@H]2C[C@H](COS(N)(=O)=O)[C@@H](O)C2)c1 (single isomer, unassigned) [I-12a, [(1R,2S,4R)-4-{[5-({4-[(1S)-1-amino-1-(3-chlorophenyl)ethyl]-2-thienyl}carbonyl)pyrimidin-4-yl]amino}-2-hydroxycyclopentyl]methyl sulfamate or [(1R,2S,4R)-4-{[5-({4-[(1R)-1-amino-1-(3-chlorophenyl)ethyl]-2-thienyl}carbonyl)pyrimidin-4-yl]amino}-2-hydroxycyclopentyl]methyl sulfamate] | – | 10 to 100 | – | – | 84 |
| NS(=O)(=O)OC[C@H]1C[C@@H](Nc2ncncc2C(=O)c2cc([C@@H]3OCCc4ccc(Cl)cc43)c(Cl)s2)C[C@@H]1O (single isomer, unassigned) [I-282b, [(1R,2S,4R)-4-{[5-({5-chloro-4-[(1R)-7-chloro-3,4-dihydro-1H-isochromen-1-yl]-2-thienyl}carbonyl)pyrimidin-4-yl]amino}-2-hydroxycyclopentyl]methyl sulfamate or [(1R,2S,4R)-4-{[5-({5-chloro-4-[(1S)-7-chloro-3,4-dihydro-1H-isochromen-1-yl]-2-thienyl}carbonyl)pyrimidin-4-yl]amino}-2-hydroxycyclopentyl]methyl sulfamate] | – | – | 102 | < 10 | – |
| [(1R,2S,4R)-4-{[5-({5-chloro-4-[(1R)-1-hydroxy-2-phenylethyl]-2-thienyl}carbonyl)pyrimidin-4-yl]amino}-2-hydroxycyclopentyl]methyl sulfamate and [(1R,2S,4R)-4-{[5-({5-chloro-4-[(1S)-1-hydroxy-2-phenylethyl]-2-thienyl}carbonyl)pyrimidin-4-yl]amino}-2-hydroxycyclopentyl]methyl sulfamate [I-136] | – | < 10 | – | – | 96 |
| CN(C)Cc1sc(C(=O)c2cncnc2N[C@@H]2C[C@H](COS(N)(=O)=O)[C@@H](O)C2)cc1Cc1cccc(Cl)c1 [I-77, [(1R,2S,4R)-4-{[5-({4-(3-chlorobenzyl)-5-[(dimethylamino)methyl]-2-thienyl}carbonyl)pyrimidin-4-yl]amino}-2-hydroxycyclopentyl]methyl sulfamate] | 98 | < 10 | – | – | – |
| NS(=O)(=O)OC[C@H]1C[C@@H](Nc2ncncc2C(=O)c2cc(C3NCCc4ccc(Cl)cc43)c(Cl)s2)C[C@@H]1O (single isomer, unassigned) [I-255a, [(1R,2S,4R)-4-{[5-({5-chloro-4-[(1R)-7-chloro-1,2,3,4-tetrahydroisoquinolin-1-yl]-2-thienyl}carbonyl)pyrimidin-4-yl]amino}-2-hydroxycyclopentyl]methyl sulfamate or [(1R,2S,4R)-4-{[5-({5-chloro-4-[(1S)-7-chloro-1,2,3,4-tetrahydroisoquinolin-1-yl]-2-thienyl}carbonyl)pyrimidin-4-yl]amino}-2-hydroxycyclopentyl]methyl sulfamate] | – | 10 to 100 | – | – | 93 |
| Cc1sc(C(=O)c2cncnc2N[C@@H]2C[C@H](COS(N)(=O)=O)[C@@H](O)C2)cc1[C@@H]1OCOc2ccccc21 (single isomer, unassigned) [I-280a, [(1R,2S,4R)-4-{[5-({4-[(4R)-4H-1,3-benzodioxin-4-yl]-5-methyl-2-thienyl}carbonyl)pyrimidin-4-yl]amino}-2-hydroxycyclopentyl]methyl sulfamate or [(1R,2S,4R)-4-{[5-({4-[(4S)-4H-1,3-benzodioxin-4-yl]-5-methyl-2-thienyl}carbonyl)pyrimidin-4-yl]amino}-2-hydroxycyclopentyl]methyl sulfamate] | – | – | 75 | 10 to 100 | – |
